Results on 13 compounds are retold here after PubChem BioAssay (NCI).

Among the test systems are UACC-62 melanoma; OVCAR-3 ovarian; MDA-MB-435; A549 NSCLC; TK-10 renal; SN12C renal; SK-MEL-5 melanoma; PC-3 prostate; KM12 colon; LOX IMVI melanoma.
Common to all, as to experiment: NCI-60 cell line screen, 48 h

“And” between values parts separate entries of the source, which are not always exact repeats. Identical values can stand only once.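 Briefly, cells in 96-well plates were exposed to five compound concentrations for 48 h, and endpoints were estimated by linear interpolation. GI50 is the concentration that inhibits growth by half. At the TGI there is no net growth.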

For `COC(=O)[C@]12CC[C@@H](C)[C@H](C)[C@@H]1C1=CC[C@@H]3[C@@]4(C)C(C=O)=C[C@@](C)(COC(=O)c5ccco5)[C@@H]4C(=O)C[C@@]3(C)[C@]1(C)CC2`, the GI50 in the assay on UACC-62 melanoma is 0.232 µM; with OVCAR-3 ovarian, 5.75 µM; in the assay on MDA-MB-435 it was 0.193 µM; in the assay with A549 NSCLC, 3.99 µM; with TK-10 renal, 11.7 µM; in the assay with SN12C renal, 8.69 µM. Also, the GI50 in the assay with SK-MEL-5 melanoma was 0.294 µM; in the assay with PC-3 prostate it was 3.66 µM; with KM12 colon, 4.26 µM; with LOX IMVI melanoma, 4.42 µM. Further, the TGI in the assay on UACC-62 melanoma was 2.34 µM; with OVCAR-3 ovarian, over 100 µM; in the assay with MDA-MB-435 it was 4.33 µM; in the assay on A549 NSCLC it was over 100 µM; in the assay on TK-10 renal, over 100 µM; with SN12C renal it was over 100 µM. Moreover, the TGI with SK-MEL-5 melanoma was 1.45 µM; in the assay with PC-3 prostate it was over 100 µM; in the assay with KM12 colon it was over 100 µM; with LOX IMVI melanoma it was 31.2 µM.
As to `CN1CCN(Cc2ccc(NC(=O)c3cncc(C#Cc4cncc5ncccc45)c3)cc2C(F)(F)F)CC1`, the GI50 in the assay on UACC-62 melanoma is 1.67 µM; in the assay on OVCAR-3 ovarian, 6.32 µM; in the assay on MDA-MB-435, 2.03 µM; in the assay with A549 NSCLC it was 3.86 µM; in the assay on TK-10 renal, 4.18 µM; in the assay with SN12C renal, 2.59 µM. Besides, the GI50 with SK-MEL-5 melanoma is 2.95 µM; with PC-3 prostate it was 5.5 µM; in the assay on KM12 colon, 0.0444 µM; in the assay on LOX IMVI melanoma, 0.794 µM. Besides, the TGI with UACC-62 melanoma was 9.52 µM; in the assay with OVCAR-3 ovarian, 19.2 µM; in the assay with MDA-MB-435 it was 12.9 µM; in the assay with A549 NSCLC, 15.5 µM; in the assay on TK-10 renal, 15.4 µM; in the assay on SN12C renal, 11.8 µM. The TGI came out at 13.6 µM in the assay with SK-MEL-5 melanoma, 24 µM in the assay on PC-3 prostate, 11.7 µM with KM12 colon and 2.11 µM in the assay on LOX IMVI melanoma.
As to `Cc1ccc(C)c(NC(=O)NCc2ccc(Cl)cc2)c1`, the TGI in the assay on UACC-62 melanoma is over 100 µM; with OVCAR-3 ovarian it was over 100 µM; in the assay with MDA-MB-435, over 100 µM; in the assay with A549 NSCLC, over 100 µM; in the assay with TK-10 renal it was 69.8 µM; in the assay on SN12C renal it was over 100 µM. Also, the TGI with SK-MEL-5 melanoma, in the assay with PC-3 prostate, with KM12 colon and in the assay on LOX IMVI melanoma was over 100 µM in each case.
For the compound `Cn1cc(C2=C(c3cccnc3)C(=O)NC2=O)c2ccccc21`, the GI50 in the assay with UACC-62 melanoma is over 25 µM; with OVCAR-3 ovarian it was 15 µM; in the assay on MDA-MB-435, over 25 µM; with A549 NSCLC it was over 25 µM; in the assay on TK-10 renal, over 25 µM; with SN12C renal, over 25 µM. The GI50 in the assay with SK-MEL-5 melanoma was over 12 µM; with PC-3 prostate, 17.1 µM; in the assay on KM12 colon it was over 20.6 µM; with LOX IMVI melanoma, over 20.9 µM. Besides, the TGI in the assay with UACC-62 melanoma, with OVCAR-3 ovarian, in the assay on MDA-MB-435, in the assay on A549 NSCLC, with TK-10 renal and in the assay on SN12C renal was over 25 µM throughout. The TGI in the assay on SK-MEL-5 melanoma was over 22.5 µM; in the assay on PC-3 prostate, over 25 µM; in the assay with KM12 colon, over 25 µM; in the assay on LOX IMVI melanoma, over 25 µM.
In the case of `Cc1cnc(/C=N\NC(N)=S)c2cccc(N)c12`, the GI50 in the assay with UACC-62 melanoma is 1.13 µM; in the assay on OVCAR-3 ovarian, 3.03 µM; with MDA-MB-435 it was 3.9 µM; with A549 NSCLC, 4.85 µM; in the assay on TK-10 renal, 6.89 µM; in the assay on SN12C renal it was 1.51 µM. Moreover, the GI50 with SK-MEL-5 melanoma was 1.25 µM; in the assay on PC-3 prostate, over 22.7 µM; with KM12 colon it was 4.82 µM; in the assay on LOX IMVI melanoma, 2.32 µM. The TGI in the assay with UACC-62 melanoma is 9.26 µM and 6.67 µM; in the assay on OVCAR-3 ovarian, over 100 µM; in the assay with MDA-MB-435, over 100 µM; in the assay on A549 NSCLC, over 100 µM; in the assay with TK-10 renal it was over 100 µM; in the assay on SN12C renal, > 26.5 µM and 4.35 µM. Further, the TGI with PC-3 prostate, with KM12 colon and in the assay with LOX IMVI melanoma was over 100 µM throughout.
Consider `C[C@@H]1CC[C@@H]2[C@@H]1[C@H](OC(=O)/C=C/c1ccccc1)[C@]1(C3CCCCC3)C[C@@H](NC(=O)CO)[C@@]2(C)O1`, for which the GI50 is 16.2 µM with UACC-62 melanoma; 17.3 µM in the assay on OVCAR-3 ovarian; 17.2 µM in the assay with MDA-MB-435; 21 µM in the assay with A549 NSCLC; 18.4 µM with TK-10 renal; 11.4 µM in the assay on SN12C renal. The GI50 was 15.3 µM in the assay with SK-MEL-5 melanoma, 14.9 µM in the assay on PC-3 prostate, 16.3 µM in the assay with KM12 colon and 17.8 µM in the assay on LOX IMVI melanoma. For the same compound, the TGI was 30.3 µM in the assay on UACC-62 melanoma; 34.2 µM in the assay on OVCAR-3 ovarian; 32.4 µM with MDA-MB-435; 37 µM in the assay with A549 NSCLC; 35.3 µM in the assay with TK-10 renal; 24.2 µM in the assay with SN12C renal. In addition, the TGI in the assay with SK-MEL-5 melanoma is 29 µM; in the assay on PC-3 prostate, 28.9 µM; with KM12 colon, 32 µM; in the assay on LOX IMVI melanoma, 32.5 µM.
Regarding `N#Cc1ccc(N2Cc3ccccc3OC3=C2C(=O)c2c(O)ccc(O)c2C3=O)cc1`, the GI50 in the assay with UACC-62 melanoma is 0.24 µM; with OVCAR-3 ovarian, 0.153 µM; with MDA-MB-435, 0.235 µM; with A549 NSCLC it was 2.49 µM; in the assay with TK-10 renal, 0.118 µM; in the assay with SN12C renal it was 0.856 µM. Moreover, the GI50 was 0.685 µM in the assay on SK-MEL-5 melanoma, 0.357 µM with PC-3 prostate, 1.28 µM with KM12 colon and 0.166 µM in the assay on LOX IMVI melanoma. Moreover, the TGI was 0.667 µM in the assay on UACC-62 melanoma; 0.433 µM in the assay with OVCAR-3 ovarian; 0.579 µM with MDA-MB-435; 9.76 µM with A549 NSCLC; 0.265 µM in the assay with TK-10 renal; 2.16 µM in the assay on SN12C renal. In addition, the TGI with SK-MEL-5 melanoma turned out to be 2.26 µM; in the assay with PC-3 prostate it was 1.29 µM; in the assay with KM12 colon it was 6.1 µM; in the assay on LOX IMVI melanoma, 0.44 µM.
`CC(=O)c1cc2c(cc1Nc1c3ccccc3nc3occ(Cl)c13)OCO2`: the GI50 in the assay with UACC-62 melanoma was 0.271 µM; in the assay with OVCAR-3 ovarian, 0.0725 µM; in the assay on MDA-MB-435 it was 0.0444 µM; in the assay with A549 NSCLC it was 0.2 µM; in the assay on TK-10 renal it was 0.409 µM; with SN12C renal it was 0.603 µM. The GI50 in the assay with SK-MEL-5 melanoma was 0.103 µM; in the assay on PC-3 prostate, 0.0856 µM; in the assay on KM12 colon, 0.0556 µM; with LOX IMVI melanoma, 0.435 µM. Moreover, the TGI was 0.178 µM in the assay with OVCAR-3 ovarian; 0.161 µM with MDA-MB-435; over 100 µM with TK-10 renal; over 100 µM in the assay on SN12C renal; 0.376 µM in the assay with SK-MEL-5 melanoma; 3.71 µM in the assay with PC-3 prostate. In addition, the figures for the TGI with KM12 colon and in the assay with LOX IMVI melanoma were 0.494 µM and over 100 µM, respectively.
For `O=C(Nc1ccc(Cl)cc1F)c1cc(I)ccc1O`, the GI50 was 0.448 µM in the assay on UACC-62 melanoma; 1.66 µM with OVCAR-3 ovarian; 2.08 µM with MDA-MB-435; 2.88 µM with A549 NSCLC; 4.21 µM with TK-10 renal; 1.01 µM with SN12C renal. The GI50 was 1.12 µM with SK-MEL-5 melanoma, 2.07 µM in the assay with PC-3 prostate, 2.15 µM in the assay with KM12 colon and 1.42 µM with LOX IMVI melanoma. Further, the TGI was 2.19 µM in the assay with UACC-62 melanoma; 16.1 µM with OVCAR-3 ovarian; 7.9 µM in the assay with MDA-MB-435; over 100 µM in the assay on A549 NSCLC; 16.1 µM in the assay on TK-10 renal; 7.62 µM in the assay on SN12C renal. Also, the TGI was found to be 2.53 µM with SK-MEL-5 melanoma, 6.36 µM with PC-3 prostate, 4.98 µM in the assay on KM12 colon and 6.79 µM in the assay on LOX IMVI melanoma.
Consider `CCN1C(=O)NC(=O)C(C)(N2C(=O)c3c(F)c(F)c(F)c(F)c3C2=O)C1=O` (configuration not stated), for which the GI50 in the assay on UACC-62 melanoma is 2.75 µM; in the assay with OVCAR-3 ovarian, 1.71 µM; in the assay on MDA-MB-435 it was 2.96 µM; in the assay with A549 NSCLC, 3.69 µM; in the assay on TK-10 renal, 3.72 µM; with SN12C renal, 3.99 µM. Also, the GI50 in the assay on SK-MEL-5 melanoma was 4.92 µM; in the assay with PC-3 prostate, 3.09 µM; with KM12 colon it was 2.11 µM; in the assay with LOX IMVI melanoma, 1.87 µM. For the same compound, the TGI worked out at 9.57 µM in the assay with UACC-62 melanoma; 3.22 µM with OVCAR-3 ovarian; 10.6 µM with MDA-MB-435; 18.3 µM with A549 NSCLC; 18.6 µM with TK-10 renal; 14.6 µM in the assay on SN12C renal. The TGI is 13.7 µM with SK-MEL-5 melanoma, 10.5 µM with PC-3 prostate, 4.56 µM in the assay with KM12 colon and 4 µM in the assay with LOX IMVI melanoma.
As to `CC/C=C\C/C=C\C[C@H](O)C/C=C1/C(=O)C=C[C@@H]1C/C=C\CCCC(=O)O`, the GI50 in the assay with UACC-62 melanoma is 1.94 µM; in the assay with OVCAR-3 ovarian, 3.23 µM; in the assay on MDA-MB-435, 3.1 µM; in the assay with A549 NSCLC it was 13.6 µM; in the assay with TK-10 renal it was 8.06 µM; with SN12C renal, 3.6 µM. Besides, the GI50 was 2.42 µM in the assay with SK-MEL-5 melanoma, 6.03 µM in the assay with PC-3 prostate, 3.06 µM in the assay on KM12 colon and 1.74 µM in the assay on LOX IMVI melanoma. Also, the TGI in the assay with UACC-62 melanoma came out at 8.02 µM; in the assay on OVCAR-3 ovarian, 12.7 µM; in the assay with MDA-MB-435, 12 µM; with A549 NSCLC it was 56.6 µM; in the assay on TK-10 renal, 21.1 µM; with SN12C renal, 43.1 µM. Besides, the TGI was found to be 5.98 µM in the assay on SK-MEL-5 melanoma, 21.5 µM with PC-3 prostate, 11.5 µM with KM12 colon and 3.74 µM in the assay with LOX IMVI melanoma.
For the compound `CC(=O)c1c(C)n(C)c2c1nnc1ccccc12`, the TGI with UACC-62 melanoma, with OVCAR-3 ovarian, with MDA-MB-435, in the assay on A549 NSCLC, in the assay with TK-10 renal and in the assay on SN12C renal was over 100 µM each time. The TGI with SK-MEL-5 melanoma, in the assay with PC-3 prostate, in the assay with KM12 colon and with LOX IMVI melanoma was over 100 µM in each case.
In the case of `COC1CCC(O)C(/C=C/[N+](=O)[O-])C1` (configuration not stated), the TGI in the assay on UACC-62 melanoma stood at 19.3 µM; in the assay with OVCAR-3 ovarian, 22.3 µM; with MDA-MB-435, 3.67 µM; in the assay with A549 NSCLC it was 42.9 µM; in the assay with TK-10 renal, 16.1 µM; in the assay with SN12C renal it was 9.05 µM. Moreover, the TGI was found to be 14.9 µM in the assay with SK-MEL-5 melanoma, 6.01 µM in the assay on PC-3 prostate, 16.9 µM with KM12 colon and 3.05 µM in the assay with LOX IMVI melanoma.
